From ChEMBL document CHEMBL1158312, “Cytotoxic triterpenes from a marine sponge, Stelletta sp” (J Nat Prod, 1996)
Calls of active or inactive are those of the source.

Experiments:
[1] = target: T1, Retinoic acid receptor RXR-alpha (Mus musculus) (UniProt P28700); test: Antagonist activity at mouse RXRalpha assessed as inhibition of 9-cis-retinoic acid-induced response by differential proteolytic sensitivity assay; assay type: functional
T1 sequence (whole entry): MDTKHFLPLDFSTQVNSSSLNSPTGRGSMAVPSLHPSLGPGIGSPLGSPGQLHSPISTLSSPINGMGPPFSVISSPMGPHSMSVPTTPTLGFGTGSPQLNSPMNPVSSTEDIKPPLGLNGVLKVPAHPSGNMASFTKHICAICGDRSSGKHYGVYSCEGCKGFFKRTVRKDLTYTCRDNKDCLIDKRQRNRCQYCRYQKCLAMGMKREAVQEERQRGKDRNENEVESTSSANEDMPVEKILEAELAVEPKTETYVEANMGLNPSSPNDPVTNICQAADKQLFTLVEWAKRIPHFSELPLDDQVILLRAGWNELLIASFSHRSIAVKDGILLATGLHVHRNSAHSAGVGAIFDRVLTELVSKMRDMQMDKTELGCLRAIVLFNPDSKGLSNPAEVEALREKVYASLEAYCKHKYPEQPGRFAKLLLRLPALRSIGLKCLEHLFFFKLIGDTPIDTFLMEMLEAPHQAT

[2] = target: T1, Retinoic acid receptor RXR-alpha (Mus musculus); test: Binding affinity to mouse RXRalpha assessed as induction of receptor conformational change at 1 uM
[3] = target: T2, Retinoic acid receptor RXR-alpha (Homo sapiens) (UniProt P19793); test: Binding affinity to human RXRalpha assessed as induction of receptor conformational change at 1 uM
T2 sequence (whole entry): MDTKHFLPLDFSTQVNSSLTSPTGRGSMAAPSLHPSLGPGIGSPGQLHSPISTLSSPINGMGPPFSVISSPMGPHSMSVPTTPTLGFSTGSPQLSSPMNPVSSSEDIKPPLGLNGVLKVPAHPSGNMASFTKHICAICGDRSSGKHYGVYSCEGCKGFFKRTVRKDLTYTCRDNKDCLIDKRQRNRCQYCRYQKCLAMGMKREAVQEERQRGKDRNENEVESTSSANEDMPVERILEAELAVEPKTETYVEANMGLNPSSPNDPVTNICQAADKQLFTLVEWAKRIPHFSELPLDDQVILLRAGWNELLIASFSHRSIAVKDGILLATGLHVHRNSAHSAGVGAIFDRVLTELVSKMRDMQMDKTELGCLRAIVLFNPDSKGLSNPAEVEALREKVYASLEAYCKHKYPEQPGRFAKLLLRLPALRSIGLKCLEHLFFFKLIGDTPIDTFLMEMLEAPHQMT

Measured: Activity

C/C(=C/C=C/C(C)=C/C=C/C(C)=C1\C(=O)C[C@H]2[C@@]3(C)CCC(=O)C(C)(C)[C@@H]3CC[C@]12C)C(=O)O
inactive: [1] | [2] | [3]

CC(/C=C/C=C(\C)c1ccc(C)c(=O)o1)=C1/C(=O)C[C@H]2[C@@]3(C)CCC(=O)C(C)(C)[C@@H]3CC[C@]12C
inactive: [1] | [2] | [3]
